Laboratory results from PubChem BioAssay (NCI).
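Each compound was tested at five concentrations against cells in 96-well plates for 48 hours. TGI is the concentration that stops growth completely.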

Experiments:
Assay in all cases: DTP human tumour cell line panel, 48 h
[1] = test system: 786-0 renal
[2] = test system: A498 renal
[3] = test system: A549 NSCLC
[4] = test system: ACHN renal
[5] = test system: BT-549 breast
[6] = test system: CAKI-1 renal
[7] = test system: CCRF-CEM leukemia
[8] = test system: COLO 205 colon
[9] = test system: DU-145 prostate
[10] = test system: EKVX NSCLC
[11] = test system: HCC-2998 colon
[12] = test system: HCT-116 colon
[13] = test system: HCT-15 colon
[14] = test system: HL-60(TB) leukemia
[15] = test system: HOP-62 NSCLC
[16] = test system: HOP-92 NSCLC
[17] = test system: HS 578T breast
[18] = test system: HT29 colon
[19] = test system: K-562 leukemia
[20] = test system: KM12 colon
[21] = test system: LOX IMVI melanoma
[22] = test system: M14 melanoma
[23] = test system: MALME-3M melanoma
[24] = test system: MDA-MB-231 breast
[25] = test system: MDA-MB-435
[26] = test system: MDA-N
[27] = test system: MOLT-4 leukemia
[28] = test system: NCI-H226 lung
[29] = test system: NCI-H23 lung
[30] = test system: NCI-H460 lung
[31] = test system: NCI-H522 lung
[32] = test system: NCI/ADR-RES ovarian
[33] = test system: OVCAR-3 ovarian
[34] = test system: OVCAR-4 ovarian
[35] = test system: OVCAR-5 ovarian
[36] = test system: OVCAR-8 ovarian
[37] = test system: PC-3 prostate
[38] = test system: RPMI-8226 leukemia
[39] = test system: RXF 393 renal
[40] = test system: SF-268 CNS
[41] = test system: SF-295 CNS
[42] = test system: SF-539 CNS
[43] = test system: SK-MEL-2 melanoma
[44] = test system: SK-MEL-28 melanoma
[45] = test system: SK-MEL-5 melanoma
[46] = test system: SK-OV-3 ovarian
[47] = test system: SNB-19 CNS
[48] = test system: SNB-75 CNS
[49] = test system: SR leukemia
[50] = test system: SW-620 colon
[51] = test system: T-47D breast
[52] = test system: TK-10 renal
[53] = test system: U251 CNS
[54] = test system: UACC-257 melanoma
[55] = test system: UACC-62 melanoma
[56] = test system: UO-31 renal
[57] = test system: IGROV1 ovarian
[58] = test system: MCF7 breast
[59] = test system: SN12C renal

Compound `COC(=O)[C@@]12C(=O)C(C)C(=O)[C@]1(C)C(C)=C[C@H]1[C@]3(C=O)CC[C@H](OC(C)=O)C(C)(C)[C@H]3CC[C@@]12C` (stereo not given in full) has a TGI [1] of over 100 µM, a TGI [2] of over 100 µM and a TGI [3] of over 100 µM. The TGI [4] was over 100 µM, the TGI [5] was over 100 µM and the TGI [6] was over 100 µM. For the same compound, the TGI [7] was 63.8 µM, the TGI [8] was over 100 µM and the TGI [9] was over 100 µM. It also gave a TGI [10] of over 100 µM, a TGI [11] of over 100 µM and a TGI [12] of over 100 µM. For the same compound, the TGI [13] was over 100 µM, the TGI [14] was 52.3 µM and the TGI [15] was over 100 µM. For the same compound, the TGI [16] was over 100 µM, the TGI [17] was over 100 µM and the TGI [18] was over 100 µM. It also gave a TGI [19] of over 100 µM, a TGI [20] of over 100 µM and a TGI [21] of over 100 µM. The TGI [22] was over 100 µM, the TGI [23] was over 100 µM and the TGI [24] was over 100 µM. It also gave a TGI [25] of over 100 µM, a TGI [26] of over 100 µM and a TGI [27] of 69.1 µM. For the same compound, the TGI [28] was over 100 µM, the TGI [29] was over 100 µM and the TGI [30] was over 100 µM. The TGI [31] was over 100 µM, the TGI [32] was over 100 µM and the TGI [33] was over 100 µM. It also gave a TGI [34] of over 100 µM, a TGI [35] of over 100 µM and a TGI [36] of over 100 µM. It also gave a TGI [37] of over 100 µM, a TGI [38] of over 100 µM and a TGI [39] of over 100 µM. For the same compound, the TGI [40] was over 100 µM, the TGI [41] was over 100 µM and the TGI [42] was over 100 µM. The TGI [43] was over 100 µM, the TGI [44] was over 100 µM and the TGI [45] was over 100 µM. The TGI [46] was over 100 µM, the TGI [47] was over 100 µM and the TGI [48] was over 100 µM. It also gave a TGI [49] of over 100 µM, a TGI [50] of over 100 µM and a TGI [51] of over 100 µM. It also gave a TGI [52] of over 100 µM, a TGI [53] of over 100 µM and a TGI [54] of over 100 µM. It also gave a TGI [55] of over 100 µM and a TGI [56] of over 100 µM.

In the case of `Cn1c(=O)c2c(ncn2CCCCOc2ccc3c(c2)[n+]([O-])nc(N)[n+]3[O-])n(C)c1=O`, the TGI [1] is reported as over 100 µM, the TGI [3] is reported as over 100 µM and the TGI [5] is reported as 70.6 µM. The TGI [6] was over 100 µM, the TGI [7] was over 100 µM and the TGI [8] was 43.2 µM. It also gave a TGI [9] of over 100 µM, a TGI [10] of over 100 µM and a TGI [11] of 52.6 µM. For the same compound, the TGI [12] was over 100 µM, the TGI [13] was over 100 µM and the TGI [14] was over 100 µM. For the same compound, the TGI [15] was over 100 µM, the TGI [16] was 33.4 µM and the TGI [17] was over 100 µM. For the same compound, the TGI [18] was over 100 µM, the TGI [57] was 67.6 µM and the TGI [19] was over 100 µM. It also gave a TGI [20] of over 100 µM, a TGI [21] of over 100 µM and a TGI [22] of over 100 µM. For the same compound, the TGI [23] was over 100 µM, the TGI [58] was over 100 µM and the TGI [24] was over 100 µM. It also gave a TGI [25] of over 100 µM, a TGI [26] of over 100 µM and a TGI [27] of over 100 µM. The TGI [28] was 79.6 µM, the TGI [29] was over 100 µM and the TGI [30] was over 100 µM. It also gave a TGI [31] of over 100 µM, a TGI [32] of over 100 µM and a TGI [33] of over 100 µM. For the same compound, the TGI [34] was over 100 µM, the TGI [36] was over 100 µM and the TGI [37] was over 100 µM. The TGI [38] was over 100 µM, the TGI [39] was 80.4 µM and the TGI [40] was over 100 µM. It also gave a TGI [41] of over 100 µM, a TGI [42] of 70 µM and a TGI [43] of over 100 µM. For the same compound, the TGI [44] was over 100 µM, the TGI [45] was 22.1 µM and the TGI [46] was over 100 µM. The TGI [59] was over 100 µM, the TGI [47] was over 100 µM and the TGI [48] was 90 µM. It also gave a TGI [49] of over 100 µM, a TGI [50] of over 100 µM and a TGI [51] of 12.1 µM. The TGI [52] was over 100 µM, the TGI [53] was 91.8 µM and the TGI [54] was over 100 µM. It also gave a TGI [55] of 42 µM and a TGI [56] of over 100 µM.

For `O=c1cc(N=Nc2ccc(O)cc2)[nH]c(=O)[nH]1`, the TGI [1] was over 100 µM, the TGI [2] was over 100 µM and the TGI [3] was over 100 µM. It also gave a TGI [4] of over 100 µM, a TGI [5] of over 100 µM and a TGI [6] of over 100 µM. It also gave a TGI [8] of over 100 µM, a TGI [9] of over 100 µM and a TGI [10] of over 100 µM. It also gave a TGI [11] of over 100 µM, a TGI [12] of over 100 µM and a TGI [13] of over 100 µM. It also gave a TGI [14] of over 100 µM, a TGI [15] of over 100 µM and a TGI [16] of over 100 µM. It also gave a TGI [18] of over 100 µM, a TGI [57] of over 100 µM and a TGI [19] of over 100 µM. The TGI [20] was over 100 µM, the TGI [21] was over 100 µM and the TGI [22] was over 100 µM. The TGI [23] was 89.2 µM, the TGI [58] was over 100 µM and the TGI [24] was over 100 µM. It also gave a TGI [25] of over 100 µM, a TGI [26] of over 100 µM and a TGI [27] of over 100 µM. For the same compound, the TGI [28] was over 100 µM, the TGI [29] was over 100 µM and the TGI [30] was over 100 µM. For the same compound, the TGI [31] was over 100 µM, the TGI [32] was over 100 µM and the TGI [33] was over 100 µM. It also gave a TGI [34] of over 100 µM, a TGI [35] of over 100 µM and a TGI [36] of over 100 µM. For the same compound, the TGI [37] was over 100 µM, the TGI [38] was over 100 µM and the TGI [39] was over 100 µM. For the same compound, the TGI [40] was over 100 µM, the TGI [41] was over 100 µM and the TGI [42] was over 100 µM. It also gave a TGI [43] of over 100 µM, a TGI [44] of over 100 µM and a TGI [45] of over 100 µM. For the same compound, the TGI [46] was over 100 µM, the TGI [59] was over 100 µM and the TGI [47] was over 100 µM. It also gave a TGI [48] of 89.9 µM, a TGI [49] of over 100 µM and a TGI [50] of over 100 µM. The TGI [52] was over 100 µM, the TGI [53] was over 100 µM and the TGI [54] was over 100 µM. It also gave a TGI [55] of over 100 µM and a TGI [56] of over 100 µM.

`Cc1ccc(Nc2nc(NS(=O)(=O)c3cc(C(=O)Nc4ccc(Cl)cc4)c(Cl)cc3S)n[nH]2)cc1` showed a TGI [3] of over 100 µM, a TGI [4] of over 100 µM and a TGI [5] of over 100 µM. For the same compound, the TGI [6] was over 100 µM, the TGI [7] was over 100 µM and the TGI [8] was over 100 µM. For the same compound, the TGI [9] was over 100 µM, the TGI [10] was over 100 µM and the TGI [12] was over 100 µM. The TGI [13] was over 100 µM, the TGI [14] was over 100 µM and the TGI [15] was over 100 µM. It also gave a TGI [17] of over 100 µM, a TGI [18] of over 100 µM and a TGI [57] of over 100 µM. It also gave a TGI [19] of over 100 µM, a TGI [20] of over 100 µM and a TGI [21] of over 100 µM. It also gave a TGI [22] of over 100 µM, a TGI [23] of over 100 µM and a TGI [58] of over 100 µM. It also gave a TGI [24] of over 100 µM, a TGI [25] of over 100 µM and a TGI [26] of over 100 µM. It also gave a TGI [27] of over 100 µM, a TGI [29] of over 100 µM and a TGI [30] of over 100 µM. It also gave a TGI [32] of over 100 µM, a TGI [33] of over 100 µM and a TGI [34] of over 100 µM. The TGI [35] was over 100 µM, the TGI [36] was over 100 µM and the TGI [37] was over 100 µM. The TGI [38] was over 100 µM, the TGI [39] was over 100 µM and the TGI [40] was over 100 µM. The TGI [41] was over 100 µM, the TGI [42] was over 100 µM and the TGI [44] was over 100 µM. The TGI [45] was over 100 µM, the TGI [46] was over 100 µM and the TGI [59] was over 100 µM. For the same compound, the TGI [47] was over 100 µM, the TGI [48] was over 100 µM and the TGI [49] was over 100 µM. For the same compound, the TGI [50] was over 100 µM, the TGI [51] was over 100 µM and the TGI [52] was over 100 µM. The TGI [53] was over 100 µM, the TGI [54] was over 100 µM and the TGI [55] was over 100 µM. The TGI [56] was over 100 µM.
